# Assay results reported in paper doi:10.1101/636423v1 (biorxiv, 2019).
# What was measured:
# Experiment in all cases: DiFMUP hydrolysis, fluorogenic phosphatase assay
# Format in all cases: biochemical
# [1] = target: rat PTPRZ-D1D2 (PTPRZ-ICR) (Rattus norvegicus, UniProt Q62656, D2178K/D2179K); conditions: substrate DiFMUP; competitive; also bound 1:1 in native MS
# [2] = target: rat PTPRZ-D1D2 (PTPRZ-ICR) (Rattus norvegicus, UniProt Q62656); conditions: substrate DiFMUP; competitive; also bound 1:1 to monomer in native MS
# [3] = target: PTPRZ-ΔD2 (ΔD2 mutant of PTPRZ-ICR) (Rattus norvegicus, UniProt Q62656); conditions: substrate DiFMUP; competitive; also bound 1:1 in native MS
# Chain of rat PTPRZ-D1D2 (PTPRZ-ICR) (Rattus norvegicus, UniProt Q62656) (Q62656 1699-2316): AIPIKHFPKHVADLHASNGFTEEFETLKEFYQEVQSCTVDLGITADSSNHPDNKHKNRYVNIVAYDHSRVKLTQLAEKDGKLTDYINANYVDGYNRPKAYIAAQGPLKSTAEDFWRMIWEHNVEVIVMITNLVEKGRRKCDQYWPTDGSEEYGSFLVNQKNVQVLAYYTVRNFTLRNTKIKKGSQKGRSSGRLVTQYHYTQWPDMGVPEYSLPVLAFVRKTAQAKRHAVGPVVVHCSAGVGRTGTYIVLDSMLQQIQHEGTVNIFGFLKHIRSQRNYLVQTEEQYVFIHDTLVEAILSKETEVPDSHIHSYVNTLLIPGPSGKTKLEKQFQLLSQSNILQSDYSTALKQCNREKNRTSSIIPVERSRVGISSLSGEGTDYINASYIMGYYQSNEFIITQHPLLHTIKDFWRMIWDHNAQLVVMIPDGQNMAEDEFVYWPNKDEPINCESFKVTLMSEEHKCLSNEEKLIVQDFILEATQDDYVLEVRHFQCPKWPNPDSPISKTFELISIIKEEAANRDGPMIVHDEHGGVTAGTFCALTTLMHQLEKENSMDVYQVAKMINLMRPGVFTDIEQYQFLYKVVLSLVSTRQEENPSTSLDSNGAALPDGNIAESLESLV
# Chain of rat PTPRZ-D1D2 (PTPRZ-ICR) (Rattus norvegicus, UniProt Q62656, D2178K/D2179K) (Q62656 1699-2316 D2178K/D2179K): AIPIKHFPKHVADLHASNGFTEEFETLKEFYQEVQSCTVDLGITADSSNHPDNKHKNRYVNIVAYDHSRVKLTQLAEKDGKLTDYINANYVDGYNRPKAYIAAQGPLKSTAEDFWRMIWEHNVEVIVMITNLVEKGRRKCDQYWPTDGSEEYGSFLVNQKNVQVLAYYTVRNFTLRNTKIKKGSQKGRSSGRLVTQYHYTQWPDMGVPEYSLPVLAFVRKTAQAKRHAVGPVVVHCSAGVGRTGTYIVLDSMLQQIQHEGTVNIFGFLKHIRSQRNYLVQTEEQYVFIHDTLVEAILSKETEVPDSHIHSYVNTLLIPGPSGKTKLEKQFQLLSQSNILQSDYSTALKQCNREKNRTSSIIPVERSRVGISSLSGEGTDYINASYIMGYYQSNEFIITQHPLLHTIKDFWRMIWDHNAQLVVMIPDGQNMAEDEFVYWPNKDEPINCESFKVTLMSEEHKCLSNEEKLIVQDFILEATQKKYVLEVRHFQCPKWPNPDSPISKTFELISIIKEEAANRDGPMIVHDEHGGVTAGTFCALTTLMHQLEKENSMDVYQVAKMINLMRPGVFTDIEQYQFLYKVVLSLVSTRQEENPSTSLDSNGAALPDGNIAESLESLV
substance,measurement,setting,value
SCB4380,IC50,[1],370 nM
same,IC50,[2],380 nM
same,IC50,[3],400 nM
